Assay results taken from patent US9981940B2, “Aryl sulfide derivatives and aryl sulfoxide derivatives as acaricides and insecticides” (BAYER CROPSCIENCE AKTIENGESELLSCHAFT, priority 2013, dated 2018).

Assays:
Tetranychus urticae = Tetranychus urticae spray test, OP-resistant (TETRUR); type: in vivo; details: after 6 days
In short: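 Mortality as % efficacy (0% = no mites killed) read 6 days after spraying. Formulation: active ingredient in acetone/dimethylformamide plus emulsifier, diluted with emulsifier-containing water, applied to Phaseolus vulgaris leaf discs carrying every life stage of OP-resistant spider mites.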

[1] = log P by HPLC (OECD Guideline 117), method [a] acidic range; type: physicochemical; details: for logP[a]: HPLC, method [a] acidic range; for chromatographic logP: reversed-phase C18 HPLC column, acidic range
Method: (§1) The log P values were determined analogously to OECD Guideline 117 (EC Directive 92/69/EEC) by HPLC (high-performance liquid chromatography) using reversed-phase columns (C 18), by the following methods:
[a] The LC-MS determination in the acidic range is effected at pH 2.7 with 0.1% aqueous formic acid and acetonitrile (contains 0.1% formic acid) as eluents; linear gradient from 10% acetonitrile to 95% acetonitrile.

[2] = log P by HPLC (OECD Guideline 117), method [b] neutral range; type: physicochemical; details: HPLC; for logP[b]: method [b] neutral range
Method: as §1
[b] The LC-MS determination in the neutral range is effected at pH 7.8 with 0.001 molar aqueous ammonium hydrogencarbonate solution and acetonitrile as eluents; linear gradient from 10% acetonitrile to 95% acetonitrile.

| logP[a] [1] | logP[b] [2] | chromatographic logP ([1]; pH 2.7, HPLC method [a], read-out: logP[a]) | chromatographic logP ([1]; pH 2.7, HPLC, pH 2.7, read-out: log P[a]) | chromatographic logP ([2]; reversed-phase C18 HPLC column, neutral range, pH 7.8) | Structure (SMILES) | efficacy (Tetranychus urticae; application rate of 500 g/ha) [%] | pest or weed control at 500 g/ha (Tetranychus urticae; Tetranychus urticae, 144 h, application rate of 500 g/ha, read-out: efficacy) [%] | efficacy (Tetranychus urticae; application rate of 100 g/ha) [%] |
| --- | --- | --- | --- | --- | --- | --- | --- | --- |
| 3.61 | 3.53 | – | – | – | Cc1cc(F)c(-n2nc(OC(C)C)n(C)c2=O)cc1SCC(F)(F)F [Example 151] | 100 | – | – |
| 4.78 | 4.66 | – | – | – | Cc1cc(F)c(-n2nc(C(F)(F)F)n(C(C)(C)C)c2=O)cc1SCC(F)(F)F [Example 67] | 90 | – | – |
| 2.51 | 2.48 | – | – | – | Cc1cc(F)c(-n2nc(N(C)C)n(N)c2=O)cc1SCC(F)(F)F [Example 220] | 90 | – | – |
| 2.88 | 2.81 | – | – | – | COC1=CC(=O)N(c2cc(SCC(F)(F)F)c(C)cc2C)C1 [Example 312] | 90 | – | – |
| 2.52 | 2.49 | – | – | – | CC1=C(C)C(=O)N(c2cc([S+]([O-])CC(F)(F)F)c(C)cc2F)C1=O (stereo not shown) [Example 341] | 90 | – | – |
| – | – | 4.68 | 4.68 | 4.57 | Cc1cc(F)c(-n2nc(C3CCCC3)n(C3CC3)c2=S)cc1SCC(F)(F)F [Example 497, 5-Cyclopentyl-4-cyclopropyl-2-{2-fluoro-4-methyl-5-[(2,2,2-trifluoroethyl)sulphanyl]-phenyl}-2,4-dihydro-3H-1,2,4-triazole-3-thione] | – | 90 | – |
| 3.21 | 3.15 | – | – | – | Cc1cc(F)c(-n2nc(OCC(C)(C)C)n(C)c2=O)cc1[S+]([O-])CC(F)(F)F (stereo not shown) [Example 165] | 100 | – | – |
| 2.46 | 2.43 | – | – | – | Cc1cc(F)c(N2CC(OC(C)C)=CC2=O)cc1[S+]([O-])CC(F)(F)F (stereo not shown) [Example 325] | 100 | – | – |
| 3.30 | 3.24 | – | – | – | C=CCn1c(OC)nn(-c2cc(SCC(F)(F)F)c(C)cc2F)c1=O [Example 182] | 100 | – | – |
| 3.20 | 3.15 | – | – | – | Cc1cc(F)c(-n2nc(N(C)C)n(C3CC3)c2=O)cc1SCC(F)(F)F [Example 193] | 100 | – | – |
| 3.56 | 3.60 | – | – | – | CSc1nn(-c2cc(SCC(F)(F)F)c(C)cc2F)c(=O)n1C1CC1 [Example 259] | 100 | – | – |
| 2.92 | 2.85 | – | – | – | Cc1cc(F)c(-n2nc(OCc3ccccc3)n(C)c2=O)cc1[S+]([O-])CC(F)(F)F (stereo not shown) [Example 177] | – | – | 100 |
| 3.54 | 3.49 | – | – | – | Cc1cc(F)c(-n2nc(C(F)(F)F)n(C(C)(C)C)c2=O)cc1[S+]([O-])CC(F)(F)F (racemic) [Example 68] | 100 | – | – |
| 4.35 | 4.33 | – | – | – | CCCCc1nn(-c2cc(SCC(F)(F)F)c(C)cc2F)c(=O)o1 [Example 461] | 90 | – | – |
| 2.35 | 2.36 | – | – | – | Cc1cc(F)c(-n2ncn(Cc3ccccc3)c2=O)cc1[S+]([O-])CC(F)(F)F (stereo not shown) [Example 370] | 100 | – | – |
| 3.63 | 3.66 | – | – | – | Cc1cc(F)c(-n2nc(CCOC(C)C)n(C3CC3)c2=O)cc1SCC(F)(F)F [Example 359] | 100 | – | – |
| 3.50 | 3.44 | – | – | – | COc1cc(F)c(-n2nc(OCC(C)(C)C)n(C3CC3)c2=O)cc1[S+]([O-])CC(F)(F)F (stereo not shown) [Example 403] | 100 | – | – |
| 2.67 | 2.61 | – | – | – | Cc1cc(F)c(-n2nc(C3CC3)n(N)c2=O)cc1SCC(F)(F)F [Example 196] | 100 | – | – |
| 3.90 | 3.86 | – | – | – | CCCSc1nn(-c2cc(SCC(F)(F)F)c(C)cc2F)c(=O)n1C [Example 277] | 100 | – | – |
| 3.05 | 2.98 | – | – | – | CCC[S+]([O-])c1nn(-c2cc(SCC(F)(F)F)c(C)cc2F)c(=O)n1C1CC1 (stereo not shown) [Example 236] | 90 | – | – |
| 2.82 | 2.75 | – | – | – | Cc1cc(F)c(-n2nc(SCC3CC3)n(C)c2=O)cc1[S+]([O-])CC(F)(F)F (racemic) [Example 280] | 100 | – | – |
| 2.54 | 2.52 | – | – | – | COc1nn(-c2cc([S+]([O-])CC(F)(F)F)c(C)cc2F)c(=O)n1CC1CC1 (stereo not shown) [Example 412] | 100 | – | – |
| 2.58 | 2.55 | – | – | – | Cc1cc(F)c(-n2nc(C3CC3)n(C(C)C)c2=O)cc1[S+]([O-])CC(F)(F)F (racemic) [Example 353] | 100 | – | – |
| 3.91 | 3.83 | – | – | – | Cc1cc(F)c(-n2nc(SCC3CC3)n(C)c2=O)cc1SCC(F)(F)F [Example 279] | 100 | – | – |

| logP[a] [1] | logP[b] [2] | chromatographic logP ([1]; pH 2.7, HPLC method [a], read-out: logP[a]) | chromatographic logP ([1]; pH 2.7, HPLC, pH 2.7, read-out: log P[a]) | chromatographic logP ([2]; reversed-phase C18 HPLC column, neutral range, pH 7.8) | Structure (SMILES) | efficacy (Tetranychus urticae; application rate of 500 g/ha) [%] | pest or weed control at 500 g/ha (Tetranychus urticae; Tetranychus urticae, 144 h, application rate of 500 g/ha, read-out: efficacy) [%] | efficacy (Tetranychus urticae; application rate of 100 g/ha) [%] |
| --- | --- | --- | --- | --- | --- | --- | --- | --- |
| 3.74 | 3.67 | – | – | – | COc1nn(-c2ccc(C)c(SCC(F)(F)F)c2)c(=O)n1C1CC1 [Example 90] | 100 | – | – |
| 2.45 | 2.40 | – | – | – | Cc1cc(F)c(-n2nc([S+](C)[O-])n(C3CC3)c2=O)cc1SCC(F)(F)F (stereo not shown) [Example 230] | 100 | – | – |
| 2.94 | 2.90 | – | – | – | C=CCn1c(OCC(F)(F)F)nn(-c2cc([S+]([O-])CC(F)(F)F)c(C)cc2F)c1=O (stereo not shown) [Example 407] | 90 | – | – |
| 3.07 | 3.04 | – | – | – | Cc1ccc(-n2nnn(C)c2=O)cc1SCC(F)(F)F [Example 296] | 90 | – | – |
| 3.71 | 3.64 | – | – | – | Cc1cc(F)c(-n2nc(SC(F)(F)F)n(C)c2=O)cc1SCC(F)(F)F [Example 283] | 100 | – | – |
| 2.08 | 2.03 | – | – | – | Cc1cc(F)c(-n2nc([S+]([O-])C(C)C)n(C3CC3)c2=O)cc1[S+]([O-])CC(F)(F)F (stereo not shown) [Example 239] | 100 | – | – |
| 4.37 | 4.28 | – | – | – | Cc1cc(F)c(-n2nc(SC(C)C)n(C3CC3)c2=O)cc1SCC(F)(F)F [Example 268] | 100 | – | – |
| 3.33 | 3.27 | – | – | – | CCOCc1nn(-c2cc(SCC(F)(F)F)c(C)cc2F)c(=O)n1C1CC1 [Example 73] | 90 | – | – |
| 1.92 | 1.86 | – | – | – | COCCOC1=CC(=O)N(c2cc([S+]([O-])CC(F)(F)F)c(C)cc2F)C1 (stereo not shown) [Example 335] | 90 | – | – |
| 2.09 | 2.09 | – | – | – | Cc1cc(F)c(-n2nc(C)n(N(C)C)c2=O)cc1[S+]([O-])CC(F)(F)F (stereo not shown) [Example 210] | 100 | – | – |
| 3.62 | 3.56 | – | – | – | C=CCSc1nn(-c2cc(SCC(F)(F)F)c(C)cc2F)c(=O)n1C [Example 290] | 100 | – | – |
| 4.12 | 4.03 | – | – | – | Cc1cc(F)c(-n2nc(SCc3ccccc3)n(C)c2=O)cc1SCC(F)(F)F [Example 286] | 100 | – | – |
| 2.70 | 2.65 | – | – | – | Cc1cc(F)c(-n2nc(Oc3ccccc3)n(C)c2=O)cc1[S+]([O-])CC(F)(F)F (stereo not shown) [Example 159] | 100 | – | – |
| 3.86 | 3.80 | – | – | – | Cc1cc(F)c(-n2nc(SC(C)C)n(C)c2=O)cc1SCC(F)(F)F [Example 276] | 100 | – | – |
| 2.20 | 2.15 | – | – | – | CCc1nn(-c2cc([S+]([O-])CC(F)(F)F)c(C)cc2F)c(=O)n1C1CC1 (racemic) [Example 78] | 100 | – | – |
| 1.47 | 1.45 | – | – | – | COCc1nn(-c2cc([S+]([O-])CC(F)(F)F)c(C)cc2F)c(=O)n1N (stereo not shown) [Example 207] | 100 | – | – |
| 4.02 | 4.04 | – | – | – | C=CCn1c(C(F)(F)F)nn(-c2cc(SCC(F)(F)F)c(C)cc2F)c1=O [Example 345] | 100 | – | – |
| 1.85 | 1.79 | – | – | – | Cc1cc(F)c(-n2nc(C)n(C3CC3)c2=O)cc1[S+]([O-])CC(F)(F)F (stereo not shown) [Example 41] | 90 | – | – |
| 2.50 | 2.47 | – | – | – | Cc1cc(F)c(-n2ccn(C(C)(C)C)c2=O)cc1[S+]([O-])CC(F)(F)F (stereo not shown) [Example 489] | 90 | – | – |
| 4.37 | 4.33 | – | – | – | C=C(C)CCOc1nn(-c2cc(SCC(F)(F)F)c(C)cc2F)c(=O)n1C1CC1 [Example 136] | 90 | – | – |
| 2.53 | 2.46 | – | – | – | CCn1c([S+](C)[O-])nn(-c2cc(SCC(F)(F)F)c(C)cc2F)c1=O (stereo not shown) [Example 240] | 100 | – | – |
| 2.68 | 2.65 | – | – | – | C=CCOc1nn(-c2cc([S+]([O-])CC(F)(F)F)c(C)cc2F)c(=O)n1C1CC1 (stereo not shown) [Example 391] | 100 | – | – |
| 2.57 | 2.52 | – | – | – | Cc1cc(F)c(-n2nc(SCC(F)(F)F)n(C)c2=O)cc1[S+]([O-])CC(F)(F)F (racemic) [Example 282] | 100 | – | – |
| 3.02 | 2.98 | – | – | – | Cc1cc(F)c(-n2nc(Br)n(C(C)(C)C)c2=O)cc1[S+]([O-])CC(F)(F)F (stereo not shown) [Example 441] | 100 | – | – |
